Data as given in patent US20030215817A1, “Modulation of gene expression in formation of fatty atherosclerotic lesions” (priority 2003, published 2003).
Structures can show the parent of a compound that is named as a salt.

Columns and labels:
Rec1_7 (CACA 282) mRNA = assay: quantified RT-PCR, Rec1_7; type: in vivo, rabbit; details: for Relative Abundance Rec1_7, 100 pg F: hypercholesterolemic plus lercanidipine racemate, eight weeks, H2 (normocholesterolemic)=1.0
Description: Nineteen of the isolated DST clones were further validated using RT-PCR analyses; the data are presented in FIGS. 6-24 and in Tables 5-23, below. For each DST examined, the optimal annealing temperature and reagent conditions were determined for the corresponding set of primers (see Table 25) based on results from a preliminary experiment. In eight separate reactions, each set of primers was assayed to find the optimal conditions by adjusting the following four parameters: primer concentration, dNTP concentration, MgCl2 concentration, and number of Taq polymerase units. Once optimal conditions were determined, each DST was run in duplicate multiple simultaneous reactions which usually included at least four dilutions of template (cDNA library), plus control reactions lacking template, and six sequential data points for numbers of cycles.
Reactions were performed using “Hot Start” PCR with the Clontech TaqStart antibody system (Cat. #5400-1). Each reaction contained 1 ml of the cDNA library dilution as template, determined amounts of AmpliTaq DNA polymerase (cat. #N808-0156), MgCl2, dNTPs (GibcoBRL cat. #10297-018), primer, and Clontech TaqStart Antibody in a 20 ml final reaction volume using 10×Taq buffer II (without MgCl2). Typically, a master mix containing all components except the template was prepared and aliquoted. Various templates were then added to these master mix samples and 20 ml volumes were subsequently dispensed into individual reaction tubes. At various times during the PCR run, tubes were removed sequentially on a predetermined schedule in order to quantitate expression of the target DST over a “window” of cycle times. After amplification, the samples were quantified via fluorimetry.
PCR was performed at annealing temperatures that were five degrees above the average melting temperature of each primer pair. For primers greater than 10 bases (in a 0.05M salt solution), melting temperature was calculated using the following formula: Tm=59.9+41[% GC]−[675/Primer Length], where %GC is the decimal value. Following determination of the average melting temperature of the primer pair, the annealing temperature was determined by adding five degrees to the average melting temperature. PCR was performed using the following program: 1) 95 degrees Celsius, 3 minutes; 2) 95 degrees Celsius, 30 seconds; 3) TM+5 degrees Celsius, 30 seconds; 4) 72 degrees Celsius, for a time dependent on target length at 16 bp/second; 5) repeat steps 2-4 33 more cycles; 6) 72 degrees Celsius, 3 minutes; 7) 14 degrees Celsius, forever.
Following temperature cycling, 2 ml of the PCR reaction was added to 140 ml of a 1:280 dilution of PicoGreen (Molecular Probes cat. #P-11495 (10×100 ml)) in TE pH 7.5 in a 96-well Costar UV microtiter plate (Fisher cat. #07-200623). The samples were mixed gently for 1.5 minutes and allowed to equilibrate at room temperature in the dark for 15 minutes. The concentration of the PCR products was quantified by fluorimetry using a PerSeptive Biosystems CytoFluor series 4000 multi-well plate reader.
Background fluorescence was determined by using duplicate control samples that were cycled with all reaction components except the template. The mean value from these duplicate background control samples was subtracted from the corresponding experimental values prior to analyzing results. The sensitivity of the PicoGreen dsDNA assay is reported to be 250 pg/ml (50 pg dsDNA in a […] assay volume) using a fluorescence microplate reader such as was used in these measurements. […]

[1] = test system: Rec1_6 (MspI ATCC 176) mRNA; assay: quantified RT-PCR, Rec1_6; type: in vivo, rabbit; details: for Relative Abundance Rec1_6, 20 pg F: hypercholesterolemic plus lercanidipine racemate, eight weeks, H2 (normocholesterolemic)=1.0
Description: Nineteen of the isolated DST clones were further validated using RT-PCR analyses; the data are presented in FIGS. 6-24 and in Tables 5-23, below. For each DST examined, the optimal annealing temperature and reagent conditions were determined for the corresponding set of primers (see Table 25) based on results from a preliminary experiment. In eight separate reactions, each set of primers was assayed to find the optimal conditions by adjusting the following four parameters: primer concentration, dNTP concentration, MgCl2 concentration, and number of Taq polymerase units. Once optimal conditions were determined, each DST was run in duplicate multiple simultaneous reactions which usually included at least four dilutions of template (cDNA library), plus control reactions lacking template, and six sequential data points for numbers of cycles. Reactions were performed using “Hot Start” PCR with the Clontech TaqStart antibody system (Cat. #5400-1). Each reaction contained 1 ml of the cDNA library dilution as template, determined amounts of AmpliTaq DNA polymerase (cat. #N808-0156), MgCl2, dNTPs (GibcoBRL cat. #10297-018), primer, and Clontech TaqStart Antibody in a 20 ml final reaction volume using 10×Taq buffer II (without MgCl2). Typically, a master mix containing all components except the template was prepared and aliquoted. Various templates were then added to these master mix samples and 20 ml volumes were subsequently dispensed into individual reaction tubes. At various times during the PCR run, tubes were removed sequentially on a predetermined schedule in order to quantitate expression of the target DST over a “window” of cycle times. After amplification, the samples were quantified via fluorimetry. PCR was performed at annealing temperatures that were five degrees above the average melting temperature of each primer pair. For primers greater than 10 bases (in a 0.05M salt solution), melting temperature was calculated using the following formula: Tm=59.9+41[% GC]−[675/Primer Length], where %GC is the decimal value. Following determination of the average melting temperature of the primer pair, the annealing temperature was determined by adding five degrees to the average melting temperature. PCR was performed using the following program: 1) 95 degrees Celsius, 3 minutes; 2) 95 degrees Celsius, 30 seconds; 3) TM+5 degrees Celsius, 30 seconds; 4) 72 degrees Celsius, for a time dependent on target length at 16 bp/second; 5) repeat steps 2-4 33 more cycles; 6) 72 degrees Celsius, 3 minutes; 7) 14 degrees Celsius, forever. Following temperature cycling, 2 ml of the PCR reaction was added to 140 ml of a 1:280 dilution of PicoGreen (Molecular Probes cat. #P-11495 (10×100 ml)) in TE pH 7.5 in a 96-well Costar UV microtiter plate (Fisher cat. #07-200623). The samples were mixed gently for 1.5 minutes and allowed to equilibrate at room temperature in the dark for 15 minutes. The concentration of the PCR products was quantified by fluorimetry using a PerSeptive Biosystems CytoFluor series 4000 multi-well plate reader. Background fluorescence was determined by using duplicate control samples that were cycled with all reaction components except the template. The mean value from these duplicate background control samples was subtracted from the corresponding experimental values prior to analyzing results. The sensitivity of the PicoGreen dsDNA assay is reported to be 250 pg/ml (50 pg dsDNA in a […] assay volume) using a fluorescence microplate reader such as was used in these measurements. […]

[2] = hypercholesterolemic animals receiving lercanidipine racemate

COC(=O)C1=C(C)NC(C)=C(C(=O)OC(C)(C)CN(C)CCC(c2ccccc2)c2ccccc2)C1c1cccc([N+](=O)[O-])c1 (racemic) [lercanidipine, lercanidipine hydrochloride]
Relative Abundance Rec1_7, 100 pg F (Rec1_7 (CACA 282) mRNA; cycle 24): 0.00 | Relative Abundance Rec1_7, 100 pg F (Rec1_7 (CACA 282) mRNA; cycle 26): 0.00 | Relative Abundance Rec1_7, 100 pg F (Rec1_7 (CACA 282) mRNA; cycle 28): 0.06 | Relative Abundance Rec1_7, 100 pg F (Rec1_7 (CACA 282) mRNA; cycle 30): 0.10 | Relative Abundance Rec1_7, 100 pg F (Rec1_7 (CACA 282) mRNA; cycle 32): 0.3 | Relative Abundance Rec1_7, 100 pg F (Rec1_7 (CACA 282) mRNA; cycle 34): 0.5 | expression of Rec1_7 at 8 weeks (RT-PCR study), in words (Rec1_7 (CACA 282) mRNA; [2]): down-regulated | Relative Abundance Rec1_6, 20 pg F ([1]; cycle 24): 3.1 | Relative Abundance Rec1_6, 20 pg F ([1]; cycle 26): 2.2 | Relative Abundance Rec1_6, 20 pg F ([1]; cycle 28): 2.1 | Relative Abundance Rec1_6, 20 pg F ([1]; cycle 30): 1.7 | Relative Abundance Rec1_6, 20 pg F ([1]; cycle 32): 1.4 | Relative Abundance Rec1_6, 20 pg F ([1]; cycle 34): 1.5 | expression of Rec1_6 at 8 weeks (RT-PCR study), in words [1, 2]: somewhat more elevated
